Data as given in patent US9708270B2, “Substituted spiropiperidinyl compounds useful as GPR120 agonists” (Merck Sharp & Dohme Corp., priority 2012, dated 2017).
pEC50: −log10 of the molar value.

Target: T1, human GPR120 (Homo sapiens (Human), UniProt Q5NUL3)
Test: IP1 assay (GPR120 assay adapted from Bergsdorf et al.)
Assay type: cell-based
Conditions: not given
Source text: The EC50 values for the exemplified compounds are provided in the following examples and in the following tables. • IP1 Assay • IP1 assay results were obtained adapting the GPR120 assay described in C. Bergsdorf, et al., Assay Drug Dev. Technol., 2008, 6(1), 39-53. General Schemes

T1 sequence (Q5NUL3 whole entry): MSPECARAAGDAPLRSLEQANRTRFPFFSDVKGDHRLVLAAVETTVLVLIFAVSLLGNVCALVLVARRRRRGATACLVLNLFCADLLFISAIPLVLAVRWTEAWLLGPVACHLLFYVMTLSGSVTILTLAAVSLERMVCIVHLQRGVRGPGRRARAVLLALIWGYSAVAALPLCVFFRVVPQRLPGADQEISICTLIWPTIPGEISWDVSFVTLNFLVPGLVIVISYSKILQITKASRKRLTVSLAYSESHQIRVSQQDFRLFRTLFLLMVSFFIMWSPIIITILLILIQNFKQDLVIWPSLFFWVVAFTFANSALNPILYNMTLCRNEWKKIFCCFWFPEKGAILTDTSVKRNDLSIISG

| SMILES | pEC50 |
| --- | --- |
| O=C(O)CCC1CCC2(CCN(c3cc(OC4CCC4)ccc3Cl)CC2)C1 (stereo not shown) [Example 105, 3-(8-(2-chloro-5-cyclobutoxyphenyl)-8-azaspiro[4.5]decan-2-yl)propanoic acid] | 7.35 |
| N#Cc1ccc(OC(F)(F)F)cc1N1CCC2(CCC(CCC(=O)O)C2)CC1 (stereo not shown) [Example 106] | 6.66 |
| COc1cc(F)c(N2CCC3(CCC(CCC(=O)O)C3)CC2)cc1OC1CCC1 (stereo not shown) [Example 107] | 6.69 |

Target: T1, human GPR120
Test: FLIPR assay: intracellular calcium in CHO cells expressing human GPR120
Assay type: cell-based
Conditions: FLIPR calcium assay, CHO cells expressing human GPR120, agonist action
Procedure: All compounds were tested under the FLIPR assay unless otherwise indicated.
Primers were synthesized in the domains on the opposite sides of the base sequences of the ORFs of the known GPCR and GPR120 in GenBank Accession NOs. […] The base sequences of the primers used are described below. The restriction enzymes, BamHI and EcoRI, recognition sites were introduced for subcloning, respectively.
As samples for PCR, human small intestine Marathon-ready cDNA (CLONTECH, current corporate name: TaKaRa) and cDMA obtained by reverse transcription of mouse BAT-derived RNA were used for human and mouse GPR120 receptor genes, respectively.
Using KOD Plus (TOYOBO) for PCR, 30 cycles of 94° C. for 2 minutes, 94° C. for 15 seconds, 55° C. for 30 seconds and 68° C. for 1 minute were carried out to effect reaction, followed by addition of 0.5 units of ExTaq (TaKaRa) and incubation at 72° C. for 10 minutes to carry out A-addition reaction to terminals. For mouse PCR, 35 cycles were carried out on the condition of a final DMSO concentration of 2%.
Cloning of amplified PCR products was carried out using pCR2.1-TOPO TA cloning kit (Invitrogen). For verification of base sequences, electrophoresis was carried out using BigDye Terminator Cycle Sequencing Ready Reaction Kit Ver.
The GPR120 receptor genes cloned into pCR2.1-TOPO vectors, into which the restriction enzymes, BamHI and EcoRI, recognition sites were introduced, were excised from the vectors by the enzymes and subcloned into the BamHI and EcoRI recognition sites of eukaryotic expression vector EF1/V5-His B (Invitrogen).
Test 2: Production of Expression Cells
Using Lipofectamine 2000 (Invitrogen), cDNA of GPR120 receptor was transfected into CHO/NFAT-BLA cells, and drug-resistant cells were isolated to obtain GPR120 stable expression strains. The GPR120-expressed CHO cells were cultured in DMEM/F12 medium containing 10% fetal bovine serum, 100 units/ml penicillin, 0.1 mg/ml streptomycin sulfate, 250 μg/ml Zeocin, 500 μg/mL Geneticin and 15 mM HEPES.
Test 3: Measurement of Intracellular Calcium Concentration
To the cells was added the test compound diluted with HBSS solution containing 20 mM HEPES and 2.5 mM probenecid. Variations in the intracellular calcium concentration were measured by Fluorescence Imaging Plate Reader (FLIPR; Molecular Devices) to examine the agonist action, and EC50 values were calculated. […]

| SMILES | pEC50 |
| --- | --- |
| COc1cc(OC(F)(F)F)cc(N2CCC3(CCC(CC(=O)O)CC3)CC2)c1 [Example 49] | 6.35 |
| N#Cc1cc(OC(F)(F)F)cc(N2CCC3(CCC(CC(=O)O)CC3)CC2)c1 [Example 51] | 6.21 |
| CC(C)Oc1cc(Cl)cc(N2CCC3(CCC(CC(=O)O)CC3)CC2)c1 [Example 52] | 6.19 |
| CSc1cc(N2CCC3(CCC(CC(=O)O)CC3)CC2)cc(C(F)(F)F)c1 [Example 53] | 6.18 |
| O=C(O)CC1CCC2(CC1)CCN(c1cc(OC(F)(F)F)ccc1O)CC2 [Example 54] | 6.17 |
| O=C(O)CC1CCC2(CC1)CCN(c1cc(OC3CC3)ccc1Cl)CC2 [Example 55] | 6.06 |
| CC(C)Oc1cc(OC(F)(F)F)cc(N2CCC3(CCC(CC(=O)O)CC3)CC2)c1 [Example 56] | 5.92 |
| N#Cc1ccc(OC2CCC2)cc1N1CCC2(CCC(CC(=O)O)CC2)CC1 [Example 57] | 5.88 |
| Cc1ccc(C)c(N2CCC3(CCC(CC(=O)O)CC3)CC2)c1 [Example 58] | 5.84 |
| O=C(O)CC1CCC2(CC1)CCN(c1cc(OC(F)(F)F)cc(C(F)(F)F)c1)CC2 [Example 59] | 5.83 |
| CC(C)Oc1cc(F)cc(N2CCC3(CCC(CC(=O)O)CC3)CC2)c1 [Example 60] | 5.81 |
| O=C(O)CC1CCC2(CC1)CCN(c1cc(OC(F)F)ccc1Cl)CC2 [Example 61] | 5.71 |
| O=C(O)CC1CCC2(CC1)CCN(c1cc(OC3CC3)ccc1F)CC2 [Example 62] | 5.67 |
| Cc1ccc(F)c(N2CCC3(CCC(CC(=O)O)CC3)CC2)c1 [Example 63] | 5.64 |
| COc1cccc(N2CCC3(CCC(CC(=O)O)CC3)CC2)c1 [Example 64] | 5.62 |
| Cc1ccc(C#N)cc1N1CCC2(CCC(CC(=O)O)CC2)CC1 [Example 65] | 5.60 |
| Cc1cc(F)cc(N2CCC3(CCC(CC(=O)O)CC3)CC2)c1Cl [Example 68] | 5.54 |
| CN(C)c1cccc(N2CCC3(CCC(CC(=O)O)CC3)CC2)c1 [Example 69] | 5.53 |
| Cc1cccc(N2CCC3(CCC(CC(=O)O)CC3)CC2)c1 [Example 70] | 5.53 |
| Cc1cc(C#N)cc(N2CCC3(CCC(CC(=O)O)CC3)CC2)c1 [Example 71] | 5.53 |

| SMILES | pEC50 |
| --- | --- |
| COc1cc(C)cc(N2CCC3(CCC(CC(=O)O)CC3)CC2)c1 [Example 72] | 5.51 |
| O=C(O)CC1CCC2(CC1)CCN(c1cc(C(F)(F)F)ccc1CO)CC2 [Example 73] | 5.50 |
| COc1cc(N2CCC3(CCC(CC(=O)O)CC3)CC2)c(F)cn1 [Example 74] | 5.47 |
| COCCOc1cc(Cl)cc(N2CCC3(CCC(CC(=O)O)CC3)CC2)c1 [Example 75] | 5.44 |
| O=C(O)CC1CCC2(CC1)CCN(c1ccc(-c3ccccc3)cc1)CC2 [Example 77] | 5.31 |
| Cc1cccnc1Oc1ccc(C#N)c(N2CCC3(CCC(CC(=O)O)CC3)CC2)c1 [Example 79] | 5.18 |
| COCCOc1ccc(Cl)c(N2CCC3(CCC(CC(=O)O)CC3)CC2)c1 [Example 80] | 5.16 |
| O=C(O)CCC1CCC2(CC1)CCN(c1cc(OC3CCC3)ccc1F)CC2 [Example 82, 3-(3-(5-Cyclobutoxy-2-fluorophenyl)-3-azaspiro[5.5]undecan-9-yl)propanoic acid] | 5.90 |
| O=C(O)CCCC1CCC2(CC1)CCN(c1cc(OC3CCC3)ccc1F)CC2 [Example 83, 4-(3-(5-Cyclobutoxy-2-fluorophenyl)-3-azaspiro[5.5]undecan-9-yl)butanoic acid] | 6.10 |
| O=C(O)CCC1CCC2(CC1)CCN(c1cc(OC3CCC3)ccc1Cl)CC2 [Example 84] | 5.87 |
| O=C(O)CCC1CCC2(CC1)CCN(c1cc(OC(F)(F)F)ccc1Cl)CC2 [Example 85] | 5.75 |
| O=C(O)CCCC1CCC2(CC1)CCN(c1cc(OC(F)(F)F)ccc1Cl)CC2 [Example 86] | 5.69 |
| O=C(O)CCCC1CCC2(CC1)CCN(c1cc(OC3CCC3)ccc1Cl)CC2 [Example 87] | 5.65 |
| CC1CC(CC(=O)O)CCC12CCN(c1cc(OC(F)(F)F)ccc1Cl)CC2 (stereo not shown) [Example 89, 2-(3-(2-Chloro-5-(trifluoromethoxy)phenyl)-7-methyl-3-azaspiro[5.5]undecan-9-yl)acetic acid] | 5.60 |
| NCCC1CCC2(CC1)CCN(c1cc(OC(F)(F)F)ccc1Cl)CC2 [Example 90, 2-(3-(2-chloro-5-(trifluoromethoxy)phenyl)-3-azaspiro[5.5]undecan-9-yl)ethanamine] | 5.25 |
| O=C(O)CC1CCC2(CCN(c3cccc(OC(F)(F)F)c3)CC2)OC1 (stereo not shown) [Example 95] | 5.72 |
| O=C(O)CC1CCC2(CCN(c3cc(OC(F)(F)F)ccc3Cl)CC2)OC1 (stereo not shown) [Example 97] | 5.89 |
| O=C(O)C[C@@H]1CCC2(CCN(c3cc(OC4CCC4)ccc3Cl)CC2)OC1 [Example 98] | 5.81 |
| O=C(O)C[C@@H]1CCC2(CCN(c3cc(OC4CCC4)ccc3F)CC2)OC1 [Example 100] | 5.37 |
| COc1cc(Cl)cc(N2CCC3(CC2)CC(CC(=O)O)CO3)c1 (stereo not shown) [Example 102] | 5.09 |
